Where a name gives a salt, the structure may show the parent alone.

We go through ten compounds from patent publication US10588865B2, “Tamper resistant oral opioid agonist formulations” (Purdue Pharma L.P., priority 2000, dated 2020).

For data set [1] the following is noted: in comparison to a 15 mg dose of hydrocodone. From the text:
In certain preferred embodiments, the opioid agonist is oxycodone or hydrocodone.

For data set [2] the following is noted: cited from earlier work.
Data set [3] has as its system normal subjects. Description: Example 19: effect of naltrexone on subjective and physiological effects of 15 mg hydrocodone. It counts as in vivo.
In data set [4] the test system is methadone-dependent subjects. The note with it: immediate-release naltrexone, interim analysis.
In data set [5] the test system is morphine-dependent subjects. The experiment in a line: Example 17: precipitated withdrawal after hydrocodone immediate release tablets with naltrexone.
For data set [6] the following is noted: after oral doses; cited from earlier work.
Data set [7] deals with man. The settings on record: cited from earlier work.
Where [8] appears, read: suggested by clinical data of examples 17, 18 and 19.

Take `COc1ccc2c3c1O[C@H]1[C@@H](O)C=C[C@H]4[C@@H](C2)N(C)CC[C@@]341` [Codeine]: in data set [1], the “Calculated Dose (equianalgesic dose)” value is 90.0 mg.
For the compound `CN1CC[C@]23CCCC[C@H]2[C@H]1Cc1ccc(O)cc13` [Levorphanol], the “Calculated Dose (equianalgesic dose)” value in data set [1] was 1.8 mg.
Regarding `O=C1CC[C@@]2(O)[C@H]3Cc4ccc(O)c5c4[C@@]2(CCN3CC2CC2)[C@H]1O5` [hydrochloride salt of naltrexone, Naltrexone HCl], the “water solubility” value in data set [2] is given as “very water-soluble”. Besides, the solubility in water result in data set [2] (hydrochloride salt) is “about 100 mg/cc”.
`O=C1CC[C@@]2(O)[C@H]3Cc4ccc(O)c5c4[C@@]2(CCN3CC2CC2)[C@H]1O5` [naltrexone]: the “dose able to antagonize several centrally mediated opioid effects of hydrocodone, including pupillary miosis” value in data set [3] (15 mg hydrocodone) is 0.4 mg. Also, in data set [3] (setting [8]), the “bio-available, immediate-release dose that will not affect analgesia to any significant degree” value is on record as 0.125 mg and the “prompt release of bio-available drug that will affect analgesia” value is recorded as at least 0.25 mg. Also, the “dose able to elicit the signs and symptoms of withdrawal” value in data set [4] came out at 0.5 mg. Besides, in data set [5] (1 mg naltrexone dose with hydrocodone immediate release tablets, opioid-dependent subjects), the “liking of the agonist” value is recorded as “less liking of the agonist relative to the combination with placebo”. The withdrawal signs result in data set [5] (subjects in example 17 receiving the 0.25-mg) is given as “absence of withdrawal signs”.
Consider `CCC(=O)C(CC(C)N(C)C)(c1ccccc1)c1ccccc1` (stereo not drawn) [Methadone], for which, in data set [1], the “Calculated Dose (equianalgesic dose)” value is reported as 9.0 mg.
As to `C[C@H]1[C@H]2Cc3ccc(O)cc3[C@]1(C)CCN2CC1CC1` [cyclazocine], the duration of action in data set [6] was about 24 h.
With `C=CCN1CC[C@]23c4c5ccc(O)c4O[C@H]2C(=O)CC[C@@]3(O)[C@H]1C5` [naloxone], in data set [7] (One mg intravenously), the “block of the effect of 25 mg of heroin” value was “completely block”. Also, the “dose that prevents or promptly reverses the effects of morphine-like opioid agonist” value in data set [7] (given intramuscularly or intravenously in man) was 0.4 to 0.8 mg. For the same compound, the “potency after oral administration compared with parenteral administration” value in data set [7] (oral, first passage through the liver) was “significantly lower potency”.
For the compound Meperidine, the “Calculated Dose (equianalgesic dose)” value in data set [1] is given as 135.0 mg.
With `COc1ccc2c3c1O[C@H]1C(=O)CC[C@@]4(O)[C@@H](C2)N(C)CC[C@]314` [Oxycodone, 4,5-expoxy-14-hydroxy-3-methoxy-17-methylmorphinan-6-one], in data set [1], the “Calculated Dose (equianalgesic dose)” value is listed as 13.5 mg.
Consider `COc1ccc2c3c1OC1C(=O)CC[C@H]4[C@@H](C2)N(C)CC[C@]314` (stereo partly drawn) [Hydrocodone, 4,5-epoxy-3-methoxy-17-methylmorphinan-6-one], for which the “Calculated Dose (equianalgesic dose)” value in data set [1] is 15.0 mg.
